According to PubChem BioAssay AID248 (DTP/NCI, 2004):
Values joined by “and” are separate entries in the source; they are usually repeats but may differ in a detail not shown here. Equal entries are not always repeated. Toxic doses and inconclusive results are not listed. Cut-off read from the data, not from the text of the source: active = T/C of 150% or more; inactive = T/C below 125%.

Test system: L1210 leukemia ip in BDF1 mice, survival T/C
Assay: NCI In Vivo Anticancer Drug Screen. Data for tumor model L1210 Leukemia (intraperitoneal) in B6D2F1 (BDF1) mice
Settings: endpoint: mean survival time, higher = longer survival
Procedure, shortened: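 In this screen, tumor-bearing mice given compound are compared to those given vehicle, and their survival values are reported as a treated-to-control quotient.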

[1] = dose: 10.0 mg/kg/injection, schedule: Q01DX001 (ip), vehicle: saline
[2] = dose: 20.0 mg/kg/injection, schedule: Q04DX003 (ip), vehicle: saline
[3] = dose: 40.0 mg/kg/injection, schedule: Q04DX003 (ip), vehicle: saline
[4] = dose: 100.0 mg/kg/injection, schedule: Q04DX002 (ip), vehicle: Klucel (hydroxypropylcellulose) (HPC)
[5] = dose: 200.0 mg/kg/injection, schedule: Q04DX002 (ip), vehicle: Klucel (hydroxypropylcellulose) (HPC)
[6] = dose: 400.0 mg/kg/injection, schedule: Q04DX002 (ip), vehicle: Klucel (hydroxypropylcellulose) (HPC)
[7] = dose: 6.25 mg/kg/injection, schedule: Q04DX003 (ip), vehicle: saline
[8] = dose: 12.5 mg/kg/injection, schedule: Q04DX003 (ip), vehicle: saline
[9] = dose: 25.0 mg/kg/injection, schedule: Q04DX003 (ip), vehicle: saline
[10] = dose: 100.0 mg/kg/injection, schedule: Q04DX003 (ip), vehicle: Klucel (hydroxypropylcellulose) (HPC)
[11] = dose: 100.0 mg/kg/injection, schedule: Q04DX003 (ip), vehicle: saline with Tween-80
[12] = dose: 200.0 mg/kg/injection, schedule: Q04DX003 (ip), vehicle: saline with Tween-80
[13] = dose: 400.0 mg/kg/injection, schedule: Q04DX003 (ip), vehicle: saline with Tween-80

Measured: T/C

CCCCCCCCCCCCCCCCC1=NCCN1
inactive: dose: 5.0 mg/kg/injection, schedule: Q01DX009 (ip), vehicle: saline 91 % of control | [1] 94 % of control | dose: 10.0 mg/kg/injection, schedule: Q01DX009 (ip), vehicle: saline 91 % of control | dose: 10.0 mg/kg/injection, schedule: Q04DX003 (ip), vehicle: saline 94 % of control | dose: 20.0 mg/kg/injection, schedule: Q01DX001 (ip), vehicle: saline 97 % of control | dose: 20.0 mg/kg/injection, schedule: Q01DX009 (ip), vehicle: saline 88 % of control | [2] 93 % of control and 90 % of control | dose: 40.0 mg/kg/injection, schedule: Q01DX001 (ip), vehicle: saline 101 % of control | [3] 95 % of control and 88 % of control

COC1CCC(/C=C(\C#N)C2CCC(OC)CC2)CC1 (stereo not given)
inactive: [4] 96 % of control | [5] 92 % of control | [6] 96 % of control

CC1CC(NCCO)CC(C)(C)C1 (stereo not given)
inactive: dose: 75.0 mg/kg/injection, schedule: Q01DX001 (ip), vehicle: acid diluted with saline 122 % of control | dose: 150.0 mg/kg/injection, schedule: Q01DX001 (ip), vehicle: acid diluted with saline 100 % of control

c1ccc(C2CN3CCSC3=N2)cc1 (stereo not given)
inactive: dose: 0.78 mg/kg/injection, schedule: Q04DX003 (ip), vehicle: saline 102 % of control | dose: 1.56 mg/kg/injection, schedule: Q01DX009 (ip), vehicle: saline 97 % of control | dose: 1.56 mg/kg/injection, schedule: Q04DX003 (ip), vehicle: saline 100 % of control | dose: 3.12 mg/kg/injection, schedule: Q01DX009 (ip), vehicle: saline 100 % of control | dose: 3.12 mg/kg/injection, schedule: Q04DX003 (ip), vehicle: saline 98 % of control | dose: 6.25 mg/kg/injection, schedule: Q01DX009 (ip), vehicle: saline 102 % of control | [7] 104 % of control | dose: 12.5 mg/kg/injection, schedule: Q01DX009 (ip), vehicle: saline 94 % of control | [8] 107 % of control | dose: 25.0 mg/kg/injection, schedule: Q01DX009 (ip), vehicle: saline 105 % of control | [9] 114 % of control

CCCCCCC(CCCCCC)(CCCCCC)B1OCCO1
inactive: dose: 100.0 mg/kg/injection, schedule: Q01DX009 (ip), vehicle: saline sonified 96 % of control | dose: 100.0 mg/kg/injection, schedule: Q04DX003 (ip), vehicle: saline 102 % of control | dose: 200.0 mg/kg/injection, schedule: Q01DX009 (ip), vehicle: saline sonified 106 % of control | dose: 200.0 mg/kg/injection, schedule: Q04DX003 (ip), vehicle: saline 102 % of control | dose: 400.0 mg/kg/injection, schedule: Q01DX009 (ip), vehicle: saline sonified 95 % of control | dose: 400.0 mg/kg/injection, schedule: Q04DX003 (ip), vehicle: saline 96 % of control

CCCCSCCOC(=O)Nc1ccc(Cl)cc1
inactive: dose: 100.0 mg/kg/injection, schedule: Q01DX009 (ip), vehicle: Klucel (hydroxypropylcellulose) (HPC) 103 % of control | dose: 200.0 mg/kg/injection, schedule: Q01DX009 (ip), vehicle: Klucel (hydroxypropylcellulose) (HPC) 108 % of control | dose: 400.0 mg/kg/injection, schedule: Q01DX009 (ip), vehicle: Klucel (hydroxypropylcellulose) (HPC) 92 % of control

CCOC(=O)C1C2OC(=O)C(C(=O)C2C(C2CC=CCC2)N(CCCl)CCCl)C1c1ccc(OC(C)=O)cc1 (stereo not given)
inactive: [10] 101 % of control | dose: 200.0 mg/kg/injection, schedule: Q04DX003 (ip), vehicle: Klucel (hydroxypropylcellulose) (HPC) 97 % of control | dose: 400.0 mg/kg/injection, schedule: Q04DX003 (ip), vehicle: Klucel (hydroxypropylcellulose) (HPC) 98 % of control

Nc1ccc(Cl)cc1C(=O)c1ccccn1
inactive: [11] 100 % of control | [12] 108 % of control | [13] 97 % of control

CSC(=S)NNC(=O)c1ccc(C)cc1
inactive: [2] 96 % of control | [3] 98 % of control | dose: 75.0 mg/kg/injection, schedule: Q01DX001 (ip), vehicle: saline 98 % of control | dose: 75.0 mg/kg/injection, schedule: Q04DX003 (ip), vehicle: saline 105 % of control

Cc1ncnc2c1CCC2
inactive: dose: 50.0 mg/kg/injection, schedule: Q01DX009 (ip), vehicle: saline with Tween-80 96 % of control | dose: 100.0 mg/kg/injection, schedule: Q01DX009 (ip), vehicle: saline with Tween-80 105 % of control | [11] 97 % of control | [12] 97 % of control

CCCCCCCCCCCCCCCC[N+](C)(C)C
inactive: dose: 0.93 mg/kg/injection, schedule: Q04DX003 (ip), vehicle: saline 97 % of control | dose: 1.09 mg/kg/injection, schedule: Q01DX009 (ip), vehicle: saline 100 % of control | dose: 1.87 mg/kg/injection, schedule: Q01DX009 (ip), vehicle: saline 92 % of control | dose: 1.87 mg/kg/injection, schedule: Q04DX003 (ip), vehicle: saline 106 % of control | dose: 2.0 mg/kg/injection, schedule: Q01DX015 (ip), vehicle: saline 94 % of control | dose: 2.18 mg/kg/injection, schedule: Q01DX009 (ip), vehicle: saline 100 % of control | dose: 3.75 mg/kg/injection, schedule: Q01DX009 (ip), vehicle: saline 92 % of control | dose: 3.75 mg/kg/injection, schedule: Q04DX003 (ip), vehicle: saline 95 % of control | dose: 4.0 mg/kg/injection, schedule: Q01DX015 (ip), vehicle: saline 95 % of control | dose: 4.37 mg/kg/injection, schedule: Q01DX009 (ip), vehicle: saline 91 % of control | [7] 101 % of control | dose: 7.5 mg/kg/injection, schedule: Q01DX009 (ip), vehicle: saline 92 % of control | dose: 7.5 mg/kg/injection, schedule: Q04DX003 (ip), vehicle: saline 90 % of control | dose: 11.0 mg/kg/injection, schedule: Q01DX009 (ip), vehicle: saline 113 % of control | dose: 12.5 mg/kg/injection, schedule: Q01DX001 (ip), vehicle: saline 95 % of control | [8] 105 % of control | dose: 25.0 mg/kg/injection, schedule: Q01DX001 (ip), vehicle: saline 98 % of control | dose: 25.0 mg/kg/injection, schedule: Q04DX003 (ip), vehicle: carboxymethylcellulose (CMC) 105 % of control | [9] 90 % of control | dose: 35.0 mg/kg/injection, schedule: Q04DX003 (ip), vehicle: saline 88 % of control | dose: 50.0 mg/kg/injection, schedule: Q04DX003 (ip), vehicle: carboxymethylcellulose (CMC) 100 % of control | [10] 103 % of control

COC(=O)c1ccccc1-n1cnc2ccccc2c1=O
inactive: [4] 101 % of control | [5] 101 % of control | [6] 93 % of control

CC(C)CNC(=O)Oc1cccc(NC(=O)N(C)C)c1
inactive: [11] 92 % of control | [12] 94 % of control | [13] 94 % of control

CNP(Br)(c1ccccc1)(c1ccccc1)c1ccccc1
inactive: [1] 101 % of control

CC(CC(C#N)(c1ccccc1)c1ccccc1)OS(C)(=O)=O (stereo not given)
inactive: dose: 100.0 mg/kg/injection, schedule: Q01DX001 (ip), vehicle: carboxymethylcellulose (CMC) 94 % of control | dose: 200.0 mg/kg/injection, schedule: Q01DX001 (ip), vehicle: carboxymethylcellulose (CMC) 94 % of control | dose: 400.0 mg/kg/injection, schedule: Q01DX001 (ip), vehicle: carboxymethylcellulose (CMC) 94 % of control
